Test results reported in US20170064954A1, “HERBICIDAL COMPOSITIONS CONTAINING 4-AMINO-3-CHLORO-6-(4-CHLORO-2-FLUORO-3-METHOXYPHENYL)PYRIDINE-2-CARBOXYLIC ACID OR A DERIVATIVE THEREOF, A TRIAZOLOPYRIMIDINE SULFONAMIDE HERBICIDE OR A DERIVATIVE THEREOF, AND A CELL MEMBRANE DISRUPTOR HERBICIDE OR A DERIVATIVE THEREOF” (Dow AgroSciences LLC, priority 2015, published 2017).
“And” between values parts separate entries of the source, which are not always exact repeats. Equal values may be shown once.

Tests used:
Experiment in all cases: Field trial, post-emergence foliar application, visually rated % weed control
Type in all cases: in vivo
[1] = tested on: Conyza sumatrensis (Guernsey fleabane, ERISU)
Excerpt: (§1) Treatments consisted of the methyl ester of 4-amino-3-chloro-6-(4-chloro-2-fluoro-3-methoxyphenyl)pyridine-2-carboxylic acid (Cmpd 1, halauxifen-methyl) and diclosulam in combination as GF-3220. The form of compound of formula (I) was applied on an acid equivalent basis, and diclosulam was applied on an active ingredient basis. Glufosinate-ammonium salt was applied as various commercial formulations containing 480 grams acid equivalent per liter (g ae/L). Saflufenacil was applied as a commercial formulation containing 700 grams per kilogram (g/kg). Paraquat was applied as a commercial formulation containing 200 g/L.
(§2) Field trials were conducted under standard field conditions. Plot sizes varied from 2-4 meters (m) wide by 2-5 m long. Treatments were applied with small plot backpack sprayers, using pressurized carbon dioxide (CO2) as propellant. Pressure varied from 22-40 pounds per square inch (PSI), with spray tips typically of a Flat Fan type applying water diluent at 100-150 liters per hectare (L/ha). Boom sizes varied from 2-4 m in width. Weed sizes varied, but all treatments were applied as post-emergence treatments to weeds from 2 leaf to 2 tiller growth stages varying from 2-15 inches in height. No additional adjuvant was mixed with the treatments applied in the field.
(§3) Results in Tables 1 to 7 are field trial results for foliar applied compositions. The values reported are percent (%) control visually rated. The predicted percent (%) weed control was determined using Colby's equation. • The compositions tested, application rates employed, plant species tested, and results are given in Tables 1 to 7. • The following abbreviations are used in Tables 1 to 7: • ERISS=Conyza species (fleabane, ERISS) • ERISU=Conyza sumatrensis (Guernsey fleabane) • EPHHL=Euphorbia heterophylla L. (wild poinsettia) • IAQGR=Ipomoea grandifolia (Corda-de-viola) • ERIBO=Conyza bonariensis (fleabane) • g ae/ha=grams acid equivalent per hectare • g ai/ha=grams active ingredient per hectare • Mean % weed control=observed value of percent (%) control rated visually • Predicted mean % weed control=expected value of percent (%) control as calculated by Colby's equation • Cmpd 1=methyl 4-amino-3-chloro-6-(4-chloro-2-fluoro-3-methoxyphenyl)pyridine-2-carboxylate, halauxifen-methyl, or ARYLEX®

[2] = tested on: Euphorbia heterophylla L. (wild poinsettia, EPHHL); details: Table 4, EPHHL
Excerpt: as §1, §2, §3

[3] = tested on: Conyza bonariensis (fleabane, ERIBO); details: Table 7, ERIBO, 21DAA, Paraquat 200 g ai/ha
Excerpt: as §1, §2, §3

[4] = tested on: Conyza species (fleabane, ERISS)
Excerpt: as §1, §2, §3

[5] = tested on: Ipomoea grandifolia (Corda-de-viola, IAQGR); details: Table 5, IAQGR, Paraquat 300 g ai/ha
Excerpt: as §1, §2, §3

Compound: CP(=O)(O)CCC(N)C(=O)O (stereo not drawn) [Glufosinate ammonium]
- Mean % weed control ([1]; Table 1, ERISU, 17DAA, Glufosinate ammonium 366 g ai/ha): 58.75% and 71.25%
- Mean % weed control ([1]; Table 1, ERISU, 28DAA, Glufosinate ammonium 366 g ai/ha): 71.25%
- Mean % weed control ([1]; Table 1, ERISU, 43DAA, Glufosinate ammonium 366 g ai/ha): 78.75%

Compound: C[n+]1ccc(-c2cc[n+](C)cc2)cc1 [Paraquat, 1,1′-dimethyl-4,4′-bipyridinediium]
- Mean % weed control ([1]; Table 6, ERISU, 13DAA, Paraquat 100 g ai/ha): 26.3%
- Mean % weed control ([1]; Table 6, ERISU, 13DAA, Paraquat 200 g ai/ha): 40%
- Mean % weed control ([1]; Table 6, ERISU, 22DAA, Paraquat 100 g ai/ha): 41.3% and 41.1%
- Mean % weed control ([1]; Table 6, ERISU, 22DAA, Paraquat 200 g ai/ha): 56.3%
- Mean % weed control ([1]; Table 6, ERISU, 28DAA, Paraquat 100 g ai/ha): 47.5%
- Mean % weed control ([1]; Table 6, ERISU, 28DAA, Paraquat 200 g ai/ha): 61.3%
- Mean % weed control ([2]; 14DAA, Paraquat 300 g ai/ha): 81.8%
- Mean % weed control ([2]; 21DAA, Paraquat 100 g ai/ha): 56%
- Mean % weed control ([2]; 21DAA, Paraquat 300 g ai/ha): 82.8%
- Mean % weed control ([2]; 30DAA, Paraquat 100 g ai/ha): 48.3%
- Mean % weed control ([2]; 30DAA, Paraquat 300 g ai/ha): 81.8%
- Mean % weed control [3]: 28.3%
- Mean % weed control ([4]; Table 3, ERISS, 17DAA, Paraquat 400 g ai/ha): 32.5% and 52.5%
- Mean % weed control ([4]; Table 3, ERISS, 28DAA, Paraquat 400 g ai/ha): 52.5% and 55%
- Mean % weed control ([4]; Table 3, ERISS, 43DAA, Paraquat 400 g ai/ha): 60% and 65%
- Mean % weed control ([5]; 14DAA): 54.3%
- Mean % weed control ([5]; 21DAA): 45%
- Mean % weed control ([5]; 30DAA): 39.8%

Compound: CC(C)N(C)S(=O)(=O)NC(=O)c1cc(-n2c(=O)cc(C(F)(F)F)n(C)c2=O)c(F)cc1Cl [Saflufenacil, 2-chloro-5-[3,6-dihydro-3-methyl-2,6-dioxo-4-(trifluoromethyl)-1(2H)-pyrimidinyl]-4-fluoro-N-[[methyl(1-methylethyl)amino]sulfonyl]benzamide]
- Mean % weed control ([4]; Table 2, ERISS, 17DAA, Saflufenacil 49 g ai/ha): 52.5% and 66.3%
- Mean % weed control ([4]; Table 2, ERISS, 28DAA, Saflufenacil 49 g ai/ha): 66.3%
- Mean % weed control ([4]; Table 2, ERISS, 43DAA, Saflufenacil 49 g ai/ha): 77.5%
